Measurements taken from patent US6440989B2, “Phenyl-substituted tricyclic inhibitors of farnesyl-protein transferase” (Schering Corporation, priority 1997, dated 2002).

Target: T1, partially purified rat brain farnesyl protein transferase (FPT) (Rattus norvegicus, UniProt Q02293+Q04631)
T1 construct: partially purified rat brain farnesyl protein transferase (FPT); from tissue; host or cells: rat brain
Assay: In vitro enzyme assay: inhibition of Ras-CVLS farnesylation by farnesyl protein transferase
Type: biochemical
Method: 1. In vitro enzyme assays: FPT IC50 (inhibition of farnesyl protein transferase, in vitro enzyme assay) are determined by the methods disclosed in WO/10515 or WO 95110516.

SMILES: C=Cc1cnc2c(c1)CCc1cc(C)cc(OC)c1C2C1CCN(C(=O)Cc2cc[n+]([O-])cc2)CC1 (stereo not shown) [Example 27, 4-(3-Ethenyl-6,11-dihydro-10-methoxy-8-methyl-5H-benzo[5,6]cyclohepta[1,2-b]pyridin-11-yl)-1-(4-pyridinylacetyl)piperidine N1-Oxide]
- IC50: 59 nM

SMILES: C=Cc1cnc2c(c1)CCc1cc(C)cc(OC)c1C2C1CCN(S(C)(=O)=O)CC1 (stereo not shown) [Example 28, 4-(3-Ethenyl-6,11-dihydro-10-methoxy-8-methyl-5H-benzo[5,6]cyclohepta[1,2-b]pyridin-11-yl)-1-(methylsulfonyl)piperidine]
- IC50: 132 nM

SMILES: CCc1cnc2c(c1)CCc1cc(C)cc(OC)c1C2C1CCN(C(=O)Cc2cc[n+]([O-])cc2)CC1 (stereo not shown) [Example 29, 4-(3-Ethyl-6,11-dihydro-10-methoxy-8-methyl-5H-5 benzo[5,6]cyclohepta[1,2-b]pyridin-11-yl)-1-(4-pyridinylacetyl)piperidine, N1-Oxide]
- IC50: 74 nM

SMILES: Cc1cc(Br)c2c(c1)CCc1cc(Br)cnc1C2=C1CCN(C(=O)Cc2cc[n+]([O-])cc2)CC1 [Example 37, -(3-Bromo-5,6-dihydro-10-bromo-8-methyl-11H-benzo[5,6]cyclohepta[1,2-b]pyridin-11-ylidene)-1-(4-pyridinylacetyl)piperidine N1-Oxide]
- IC50: 5.4 nM
